Source: BigSolDB 2.1

CC(C)OC(=O)[C@H](C)N[P@](=O)(OC[C@H]1O[C@@H](n2ccc(=O)[nH]c2=O)[C@](C)(F)[C@@H]1O)Oc1ccccc1
solubility (mole fraction)
Settings | 278.15 K | 283.15 K | 288.15 K | 293.15 K | 298.15 K | 303.15 K | 308.15 K | 313.15 K | 318.15 K
in acetone | 0.0275 | 0.0343 | 0.0435 | 0.0538 | 0.066 | 0.0796 | 0.0951 | 0.113 | 0.134
in acetonitrile | 0.00484 | 0.00629 | 0.00812 | 0.0101 | 0.0127 | 0.0156 | 0.019 | 0.0234 | 0.0286
in cyclohexane | – | 6.09e-07 | 9.4e-07 | 1.44e-06 | 2.09e-06 | 3.05e-06 | 4.33e-06 | 6.11e-06 | 8.66e-06
in ethanol | 0.022 | 0.0274 | 0.0342 | 0.0416 | 0.0505 | 0.0599 | 0.0712 | 0.0842 | 0.0997
in ethyl acetate | 0.00263 | 0.00362 | 0.00486 | 0.00641 | 0.0084 | 0.0108 | 0.0139 | 0.0178 | 0.0228
in n-butanol | 0.00935 | 0.0116 | 0.0144 | 0.0182 | 0.0225 | 0.0278 | 0.034 | 0.0413 | 0.0501
in toluene | 4.46e-06 | 7.43e-06 | 1.1e-05 | 1.75e-05 | 2.67e-05 | 4.02e-05 | 6.15e-05 | 9.44e-05 | 0.000144
in water | 1.18e-05 | 1.85e-05 | 2.59e-05 | 3.65e-05 | 5.05e-05 | 7.02e-05 | 9.6e-05 | 0.000131 | 0.00017
